According to patent US8551448B2, “Rotanone analogs: method of preparation and use” (The Regents of the University of California, priority 2006, dated 2013):
Read-outs that look alike come from different tables or passages of the source.

Legend:
[1] = Biodistribution of iodorotenol and iodorotenone compounds in rats (organs and blood weighed and counted); details: for uptake in the heart relative to the Z isomer: twenty microcuries into tail vein
Experimental: Evaluation of the iodorotenol and iodorotenone compounds. […] Twenty microcuries of the compound was injected into the rat tail vein. At various time points post injection (30 m, 1 h, 2 h, and 4 h) rats were euthanized and the organs and blood were weighed and counted.

[2] = Dual head planar whole body imaging in canines; details: dogs; for heart uptake and retention (planar images): 4-6 mCi 123I compound iv in front leg vein, scans to 7 h (FIG. 17); for uptake in the thyroid: no thyroid blocking agent prior to the scan
Experimental: Two 20-25 kg dogs were anesthetized with iv sodium pentathol and maintained on inhaled isoflurane. Four to six mCi of Z-[^123I]Iodorotenone or E-[^123I]Iodorotenone was injected in a front leg vein. Dual head planar imaging was carried out using the GE Millenium SPECT scanner with Hawkeye xray CT. The scanning protocol was serial 4 m whole body scans over the first hour, 8 m whole body scans from 1-2 h and 30 min whole body scans out to 7 h post injection of the tracer. […] No thyroid blocking agent was introduced prior to the scan.

[3] = system: isolated blood perfused rabbit heart; details: cited from earlier work

| Compound | uptake in the heart relative to the Z isomer [1] | heart uptake and retention (planar images) [2] | uptake in the thyroid [2] | other results |
| --- | --- | --- | --- | --- |
| COc1cc2c(cc1OC)C1C(CO2)Oc2c(ccc3c2CC(C(C)=CI)O3)C1O (stereo not drawn) [E-iodorotenol, E-7′-iodorotenol] | two-fold increase |  |  |  |
| COc1cc2c(cc1OC)[C@@H]1C(=O)c3ccc4c(c3O[C@@H]1CO2)C[C@H](/C(C)=C/I)O4 [E-iodorotenone, E-7′-iodorotenone] | nearly double | greater heart uptake and retention | minimal | time to which the heart is clearly visible ([2]; planar imaging post injection): 4.5 h; heart uptake, injected dose in the heart tissue ([1]; tail vein injection, at 1 hour): 6.5 % injected dose |
| [C-]#[N+]CC(C)(C)OC.[C-]#[N+]CC(C)(C)OC.[C-]#[N+]CC(C)(C)OC.[C-]#[N+]CC(C)(C)OC.[C-]#[N+]CC(C)(C)OC.[C-]#[N+]CC(C)(C)OC.[Tc] [Tc-99m sestamibi] |  |  |  | net heart retention ([3]; at 1 min): 0.41±0.11; net heart retention ([3]; at 26 min): 0.27±0.11; extraction [3]: 0.48±0.10 |
| COc1cc2c(cc1OC)[C@@H]1C(=O)c3ccc4c(c3O[C@@H]1CO2)C[C@H](/C(C)=C\I)O4 [Z-iodorotenone, Z-7′-iodorotenone] |  | washed out of the heart faster | minimal | clearance through the gallbladder and stomach ([2]; planar imaging, compared with the E isomer): more rapidly |
